One data set relates to HT29 cells. Briefly: Tumor cell apoptosis in HT29 colon cancer cells (Annexin V flow cytometry; caspase-3 activation). It is filed as cell-based, human. As to conditions: for tumor cell apoptosis: HT29 cells, any dose, Annexin V staining, flow cytometry. The procedure: FIG. 2A, HT-29 cells were treated with a general caspase inhibitor (Q-VD-OPh) and simultaneously treated with the indicated compounds. Apoptosis was assessed by Annexin V/PI staining. FIG. 2B, HT-29 cells were stably transfected with CrmA, DN-FADD plasmid constructs (a dominant-negative variant of FAS-associated via death domain protein) or an empty vector. These cell lines, as well as untransfected cells, were then treated with the indicated compounds and apoptosis was assessed by Annexin V/PI staining. n=3, * indicates p<0.05, ** indicates p<0.01, ns indicates p>0.05.
(§1) While this makes TRAIL a promising anti-cancer therapy, there are numerous examples of both inherent and acquired resistance to TRAIL treatment. […] It was posited that this may have been due to either inherent or acquired TRAIL resistance. Therefore, a panel of well-established human colorectal tumor cell lines (HT-29, COLO-205 and SW-620) was analyzed to determine TRAIL sensitivity. […] Therefore, this human cell line was selected for use as a model for in vitro experiments.
To assess the effect of 2DG on HT29 cells, HT29 cells were treated with increasing doses (0-50 mM) of 2DG in vitro.
(§2) To assess the effect of TRAIL on colon (HT29, COLO-205, SW-620), gastric (AGS) and pancreatic (PANC-1) cancer cell lines, cells were treated with increasing doses (0, 6.25, 12.5, 25, 50 and 100 ng/mL) of TRAIL in vitro.
To determine the mechanism of apoptosis, HT-29 and SW-620 cells were treated every 6 hours with 2DG, TRAIL or 2DG and TRAIL. […] HT-29 cells were also fractionated into cytoplasmic and membrane-heavy fractions, with COXIV as a marker of the membrane heavy fraction and beta actin as a loading control.
(§3) TRAIL mediates its effects by binding to cell surface death receptors 4 and 5 (DR4, DR5). This initiates the extrinsic apoptosis pathway ultimately resulting in cell death. Therefore, it was determined whether 2DG primes tumor cells to TRAIL by altering DR expression in HT29 cells. […] By comparison, DR4 levels were unchanged by 2DG treatment. In addition, increased surface expression of DR5 correlated with TRAIL sensitivity over time.

A further data set relates to DR5. As to the kind of experiment: Death receptor expression in HT29 cells after 2DG: DR5. The conditions noted are these: HT29 cells after treatment with 2DG. It is filed as cell-based, human. The procedure:
as §3

A further data set relates to DR4. Briefly: Death receptor expression in HT29 cells after 2DG: DR4. It is filed as cell-based, human. The conditions noted are these: HT29 cells after treatment with 2DG. How it is done: as §3
The conditions of data set [1]: clinical trials; cited from earlier work.
The next data set has as its system COLO-205. Briefly: Tumor cell apoptosis in COLO-205 colon cancer cells (Annexin V flow cytometry). It is filed as cell-based, human. The conditions noted are these: TRAIL 0-100 ng/mL, any dose, Annexin V staining. How it is done: as §1, §2
The subject of a further data set is SW-620. Briefly: Tumor cell apoptosis in SW-620 colon cancer cells (Annexin V flow cytometry; caspase-3 activation). It is filed as cell-based, human. The conditions noted are these: TRAIL 0-100 ng/mL, any dose, Annexin V staining. How it is done:
as §1, §2

Data set [2] relates to AGS gastric cancer cell line. Briefly: Tumor cell apoptosis in AGS gastric cancer cell line (Annexin V flow cytometry; caspase-3 activation). It is filed as cell-based. The conditions noted are these: TRAIL 0-100 ng/mL, any dose, Annexin V staining. The procedure:
as §2

The test system of data set [3] is PANC-1 pancreatic cancer cell line. Briefly: Tumor cell apoptosis in PANC-1 pancreatic cancer cell line (Annexin V flow cytometry; caspase-3 activation). It is filed as cell-based. As to conditions: TRAIL 0-100 ng/mL, any dose, Annexin V staining. The procedure:
as §2

Data set [4] relates to human cancer patients with various tumor histologies. The conditions noted are these: phase I trial, cited from earlier work.

A value given as a limit tells only on which side of the number the result lay.

We go through four compounds from patent publication US9757457B2, “Use of 2-deoxy-D-glucose to sensitize cancer cells to an agent that activates the extrinsic apoptotic pathway” (The Board of Trustees of the University of Illinois, priority 2013, dated 2017).

As for `OCC1OC(O)CC(O)[C@@H]1O` (stereo in doubt) [2DG, 2-deoxy-D-glucose], the tumor cell apoptosis with HT29 cells (2DG 0-50 mM) is given as at most 5%. Besides, in the data set on DR5, the “DR5 mRNA level” value was “upregulated” and the “DR5 total protein level” value was “upregulated”. Further, in the data set on DR4, the DR4 levels result is given as “unchanged”. Further, the tolerability entry in data set [1] is listed as “well-tolerated”.

Take `CC(=O)N[C@@H](CS)C(=O)O` [N-acetylcysteine]: in the data set with human colon cancer cells, the “effect on cytotoxicity of 2DG and oxaliplatin” value is “can abrogate this cytotoxicity”.

For the compound `CC(C)[C@H](NC(=O)c1ccc2ccccc2n1)C(=O)N[C@@H](CC(=O)O)C(=O)COc1c(F)cccc1F` [Q-VD-OPh], in the data set with HT29 cells (HT-29, simultaneous treatment with 2DG and TRAIL, Annexin V/PI staining, FIG. 2A), the “effect of caspase blockade on anti-tumor effect of 2DG and TRAIL” value is “inhibited the anti-tumor effect of the combination treatment”.

As for “TRAIL: TNF-related apoptosis-inducing ligand; cytokine that causes apoptosis by binding death receptors DR4 and DR5”, the tumor cell apoptosis (with HT29 cells (TRAIL 0-100 ng/mL); in the data set with COLO-205; in the data set with SW-620; in [2]; in [3]) was at most 12% throughout. For the same compound, the “TRAIL sensitivity (TRAIL-induced apoptosis)” value in the data set on HT29 cells (HT-29 cell line, maximal doses) is listed as “resistance to TRAIL at even maximal doses”. Also, the tolerability entry in data set [4] is “well-tolerated”. Moreover, the objective tumor response result in [4] (patients with colorectal cancer) is given as “none of the patients with colorectal cancer had an objective tumor response”.
